From ChEMBL document CHEMBL3507680, “University of Dundee, Gates Library screen for HepG2 cell viability”

Assay: Human HepG2 cell viability assay in 384 well format
Assay type: toxicity, cell-based
Parameters: dose 125 nL, time 70.5 hour; cytotoxicity at 70.5 h: concentration not given beside the values
Details: HepG2 cells, read-out: Inhibition

Structure (SMILES)	cytotoxicity at 70.5 h
CCc1ccc(S(=O)(=O)Nc2ccn(CC(=O)OC)n2)cc1	-4.63%
Cc1ccc(N(CC(=O)N2CCCCC2)C(=O)C2CCCO2)cc1 (centres undefined)	-1.14%
CC(C)COCCNC(=O)NC1CCCN(c2cnn(C)c2)C1 (centres undefined)	-0.131%
O=C(NCCOc1ccc(Cl)cn1)Nc1cccnc1	-0.774%
O=C(NCCOc1ccc(Cl)cn1)Nc1ccccn1	0.428%
O=C(c1cnc(-c2ccco2)s1)N1CCOc2ncccc21	-1.16%
CCCc1ncc(C(=O)N2CCOc3ncccc32)s1	-2.81%
CN1CCOC(CNCCOc2cccc(C#N)c2)C1 (centres undefined)	-7.36%
CC(C)(C)OCCN1CCCC1c1nc(Cc2ccc(F)cc2)no1 (centres undefined)	11.6%
Cc1nc2n(n1)CC(NCCc1cccs1)CC2 (centres undefined)	0.958%
Cc1nccn1-c1ccc(C(C)NCCC(C)C)cc1 (centres undefined)	-1.85%
CCc1nc(C)c(C(C)N(C)CCc2ccncc2)s1 (centres undefined)	0.87%
O=C(Cc1ccc(F)cc1)NCCNS(=O)(=O)c1ccc(F)c(F)c1	-1.6%
O=C(C1CC1)N1CCC(c2nc(-c3ccccc3)n[nH]2)CC1	-1.09%
CN(Cc1ccncc1)C(=O)Nc1cnn(CC(N)=O)c1	-4.03%
Fc1cc(CNCCn2cccn2)ccc1-n1cncn1	1.79%
COc1ccc(F)cc1C(=O)N1CCn2c(nnc2C(F)(F)F)C1	-5.57%
O=S(=O)(c1cc2ccccc2o1)N1CCCC1	4.69%
O=C(NCCNc1ccccn1)NC1CCOC2(CCCCC2)C1 (centres undefined)	3.54%
Cc1nccn1-c1ccc(C(C)NCc2cc[nH]n2)cc1 (centres undefined)	-0.399%
O=C(c1cccc(F)c1F)N1CCn2c(nnc2C(F)(F)F)C1	-4.83%
CCc1cnc(CN(C)C(C)C(=O)N2CCc3ccccc3C2)s1 (centres undefined)	0.736%
Cc1nn(C)c(C)c1CCNC(C)c1ccc(-n2ccnc2C)cc1 (centres undefined)	-2.24%
CC(C(=O)N1CCc2ccccc2C1)N(C)Cc1cscn1 (centres undefined)	-4.2%

Structure (SMILES)	cytotoxicity at 70.5 h
COCCCSc1ccc(NCc2cscn2)cc1	-2.43%
O=C(c1ccc(F)cc1Cl)N1CCn2c(nnc2C(F)(F)F)C1	1.4%
Cc1nc(CNC(C)c2cccc(S(=O)(=O)N(C)C)c2)no1 (centres undefined)	16.5%
Cc1nc(CNC(C)c2ccc(S(=O)(=O)N(C)C)cc2)no1 (centres undefined)	-2.76%
Cc1cc(C(=O)NCC2(N(C)C)CCCC2)c(C)n1-c1cccnc1	-0.689%
CC(C)CCC(=O)NCc1ccc(N2CCCCC2)cc1	-9.32%
Cc1ccc2ncn(CC(O)CN3CCC(C)CC3)c(=O)c2c1 (centres undefined)	19.7%
N#Cc1ccc(NCC(=O)Nc2ccn(Cc3cccnc3)n2)cc1	-9.9%
COCC(=O)N1CCN(c2ccc(C(=O)OC)cc2)CC1C (centres undefined)	20.1%
COCCOCCNC(=O)c1ccc(N2CCC(C)=N2)cc1	-3.96%
N#Cc1ccc(NCC(=O)Nc2ncn(Cc3cccnc3)n2)cc1	-6.44%
N#Cc1cccnc1N[C@@H]1c2ccccc2C[C@@H]1O	-16.4%
CCC(CO)NC(=O)NCc1cc(C#N)ccc1F (centres undefined)	-9.99%
CC(NC(=O)c1ccnc(C2CC2)n1)C1(N2CCOCC2)CCCC1 (centres undefined)	-4.36%
Cn1nccc1CNS(=O)(=O)c1cc(F)ccc1Br	-6.89%
CCNC(=O)NC(C)c1nc(-c2ccc(Br)cc2)no1 (centres undefined)	-8.74%
CNC(=O)NC(C)c1nc(-c2ccc(Br)cc2)no1 (centres undefined)	9.87%
N#Cc1ccc(C(=O)NCC2(N3CCOCC3)CCCC2)nc1	-4.06%
CCCNC(=O)COc1ccc(-c2ccccc2)nc1	-5.84%
CCN(CC)c1ncc(CNC2CCc3nc(C(C)C)nn3C2)s1 (centres undefined)	-5.99%
Cc1cccc(CNC(=O)Nc2ccn(CCCC(=O)N(C)C)n2)c1	-7.9%
Cc1nc(C(=O)N(C)CC(=O)N(C)C)nn1-c1ccccc1C(C)C	33.6%
CC(C)(C)c1noc(CCC(=O)N2CCN(Cc3ccc(Cl)s3)CC2)n1	25.8%
Cc1c(C(C)NC(=O)C2CCCCC2)cnn1C (centres undefined)	5.03%

Structure (SMILES)	cytotoxicity at 70.5 h
CN(C)C(=O)Cn1cc(C(=O)NCCc2cccc(Cl)c2Cl)nn1	2.52%
N#Cc1cccc(CN2C(=O)c3ccccc3CS2(=O)=O)c1	-2.45%
Cc1nc2n(n1)CC(NCc1ccnc(-c3ccccc3)n1)CC2 (centres undefined)	-2.5%
Cc1c(C(=O)NCCN2C(=O)CCC2=O)sc2ccc(F)cc12	2.84%
CCCS(=O)(=O)NCC(C)(O)c1ccsc1 (centres undefined)	-4.32%
Cn1nc2c(cc1=O)CN(CC(=O)Nc1nccs1)CC2	-3.23%
CN(C)c1ccc(NC(=O)c2ccnn2C)nc1	0.439%
OCC1(NCc2cnc(-c3ccccn3)s2)CCOCC1	28%
Cc1ccc(C(=O)Nc2ccc(N(C)C)cn2)n1C	7.03%
COCCN(Cc1cccc(C#N)c1)Cc1nc(C)no1	28.5%
CC(C)(C)n1ncc2c1CCCC2NCc1ccc2c(c1)CCO2 (centres undefined)	9.44%
CC(C)c1nc(CN2CCN(C(=O)Cc3ccccc3Cl)CC2)no1	-1.7%
O=C(Nc1nnc(C(F)F)s1)N[C@H](CCO)c1ccccc1	0.703%
CN(C)c1ccc(C(=O)N(CCO)CC2CC2)c(F)c1	30.4%
Cc1nc(CN2CCN(C(=O)CCc3nc(C(C)(C)C)no3)CC2)cs1	5.21%
CC(C)(C)n1ncc2c1CCCC2NCc1ccsc1 (centres undefined)	-0.727%
Fc1ccc(CN2CCCCC2Cn2cncn2)c2ncccc12 (centres undefined)	25.5%
O=S(=O)(NCCCN1CCCC1)c1cc(F)cc(F)c1	27.2%
Cc1ccc(C(=O)Nc2cc(C(N)=O)ccc2N2CCCCC2)cc1F	-2.35%
O=C(NC1CCN(Cn2nc(-c3ccccc3)oc2=O)CC1)C1CC1	1.77%
CCCS(=O)(=O)NCc1cccnc1OCc1ccccc1	-7.41%
NC(=O)c1ccc(N2CCCCC2)c(NC(=O)c2ccc(Br)cc2)c1	-4.44%
CC(C)c1ccc(C2(C(=O)NCCS(N)(=O)=O)CCC2)cc1	-9.09%
Cc1cc(CN(C)C(=O)C2CCCN(C(N)=O)C2)no1 (centres undefined)	-5.82%

Structure (SMILES)	cytotoxicity at 70.5 h
COCCNC(=O)Nc1cccc(COCCOC(C)C)c1	-6.5%
Fc1ccc(CN2CCCC2Cn2cncn2)c2ncccc12 (centres undefined)	2.94%
O=C(NC1CCC(C(=O)N2CCSCC2)CC1)N1CCOCC1 (centres undefined)	-5.82%
CN(Cc1cnn(C)c1)C(=O)CN1CCCC1Cn1cncn1 (centres undefined)	21.4%
CC(C)OCCOCc1cccc(NC(=O)NCC(=O)N(C)C)c1	-2.88%
Cc1cc(C(=O)NC2(c3cccc(F)c3)CCOCC2)no1	-7.78%
Cc1ccc(S(=O)(=O)NCCCN2CCC(O)CC2)cc1Cl	4.78%
Fc1ccc(CN2CCOC(Cn3cncn3)C2)c2ncccc12 (centres undefined)	-3.84%
CC(C)C1CN(C(=O)c2ccsc2)CCS1 (centres undefined)	-9.62%
Cn1ncnc1CNc1ccc2c(c1)N(C(=O)OC(C)(C)C)CCC2	-8.19%
Clc1cc(CN2CCCC(Cn3cncn3)C2)c2ncccc2c1 (centres undefined)	-12.2%
CN(Cc1cccc(F)c1)C(=O)CN1CCCC(Cn2cncn2)C1 (centres undefined)	15.6%
CN(Cc1ccccc1)C(=O)CSc1ccc2c(c1)OCCO2	2.14%
CCc1cc(NC(=O)C(c2cccc(F)c2)N2CCOCC2)[nH]n1 (centres undefined)	-4.49%
Cc1c(C(=O)NCC(C)C)nnn1-c1cccc2c1CCN(CCO)C2	-2.54%
COc1cc(C(=O)N(Cc2ccco2)C2CC2)cc(OC)c1OC	23.7%
COc1cc(NC(=O)c2ccc(Cl)cc2F)c(C(=O)N(C)C)cc1OC	-11.5%
COc1cc(NC(=O)c2ccc(C)cc2C)c(C(=O)N(C)C)cc1OC	4.46%
O=C(COc1cccc2c1CCC2=O)NCCc1cccs1	12.1%
O=C(COc1cccc2c1CCC2=O)NCc1ccccc1Cl	-10.6%
CC(CN1CCOCC1)NC(=O)NCCc1ccc(Cl)s1 (centres undefined)	-6.3%
CC(C)COCCC(=O)NCc1cn2cc(Br)ccc2n1	18.2%
COc1ccc(-c2nnc(SC(C)C(=O)NC(C)(C)C)[nH]2)c(OC)c1 (centres undefined)	32.5%
O=C(CCCOc1ccccc1F)Nc1cc[nH]n1	-6.95%

Structure (SMILES)	cytotoxicity at 70.5 h
CC(C(=O)NCc1cn2cc(Br)ccc2n1)S(C)(=O)=O (centres undefined)	-5.34%
Cc1cc(NS(=O)(=O)c2ccc(Cl)s2)ccc1-n1cccc1C(=O)O	-4.85%
CS(=O)(=O)N1CCc2c(cccc2NC(=O)Nc2ccccn2)C1	10.3%
FC(F)(F)c1ccnc(N2CCCN(C3CCOCC3)CC2)c1	-11.5%
Cc1cccc(N2CCC(NCc3cnc(C4CCC4)s3)CC2)n1	3.13%
CC(C)(C)OC(=O)N1CCCN(c2nnc(C3CC3)s2)CC1	-0.941%
FC(F)(F)c1ccnc(N2CCCOCC2)c1	-13.6%
c1cncc(CN2CCC(NCCc3ccc4c(c3)CCO4)CC2)c1	4.11%
NCc1ccc(Oc2cccc(Cl)c2Cl)cc1	14.7%
CCOc1ccccc1Oc1ccc(CN)cn1	-7.48%
CCc1nc(COc2ccc(N(C)C(C)=O)cc2)no1	26%
O=c1cc(CN2CCC(CCc3ccc(O)cc3)CC2)[nH]c(=O)[nH]1	-6.15%
O=C(CNc1cc2c(cc1Br)OCCO2)NC1CCS(=O)(=O)C1 (centres undefined)	-2.07%
NC(=O)CN1CCC(NC(=O)N2CCCC2c2ccncc2)CC1 (centres undefined)	-11.7%
O=C(Nc1cc2c(cc1Br)OCCO2)NC1CCS(=O)(=O)C1 (centres undefined)	10.1%
Cc1nnc2n1CCN(C(=O)CN1C(=O)CSc3ccccc31)C2	-3.59%
Cc1ncc(CN(C)C(=O)c2ccc3c(c2O)OC(C)(C)C3)s1	-1.48%
Cc1nnc2n1CCN(C(=O)CN1C(=O)CCCc3ccccc31)C2	12.9%
Cc1cc(CNc2ccc3nc(C4CC4)sc3c2)no1	-9.59%
Cc1c(Br)cccc1C(=O)NCC1CCCNC1 (centres undefined)	2.2%
Cc1c(Br)cccc1C(=O)NCC1CCNCC1	8.92%
Clc1ccc(C2(CNC3=NCCN3)CC2)cc1	10%
Fc1ccc(C2(CNC3=NCCN3)CCCC2)cc1	3.33%
